# System: allergen-specific T cell lines
# Assay: Functional phenotype of allergen-specific T cell lines
# Type: cell-based, human
# Settings: SA-26E 0.085 μg/ml, alone or mixed with nDer p2 10 μg/ml
# Procedure: Mononuclear cells from 10 atopic donors with sensitization towards Dermatophagoides pteronyssinus have been isolated by density gradient and 1×10^6 cells cultured in 2 ml complete medium plus 5% autologous serum in the presence of DP or nDer p2 allergens or their respective conjugates (DP-conj or nDer p2-conj) (all at 10 μg/ml) in 24 flat-bottomed plates (Costar). […] After 6 d incubation and addition of rIL-2 (Proleukin) (25 UI/ml), T cell blasts are further expanded by the addition of medium, fresh 5% autologous serum and 25 UI/ml rIL-2 every three days. After 15 d culture, T cell blasts from single cultures are collected, washed with sterile PBS, counted and used to assess allergen specificity, phenotype and function.
# To assess allergen-specificity, 1×10^5 T cell blasts are cultured in 96 U-bottomed plates in 0.2 ml final volume in medium plus 5% autologous serum, 1×10^5 autologous irradiated (9000 R) mononuclear cells as APCs, DP or nDer p2 (10 μg/ml) and, after 3 d incubation, tritiated thymidine (3HTdR) (Amersham) is added. After further 16 hr incubation, single cultures are transferred on paper filters through the use of an Harvester apparatus (Tomtec) and radioactivity measured in a β-counter. […]
smiles,measurement,value
"Nc1nc(SCCCC(=O)ON2C(=O)CCC2=O)nc2c1nc(O)n2Cc1ccccc1 [SA-26E, 4-(6-Amino-9-benzyl-8-hydroxy-9H-purin-2-ylsulfanyl)-butyric acid 2,5-dioxo-pyrrolidin-1-yl ester]",modification of the cellular phenotype of allergen-specific T cells (TH2 towards TH1/TH0),inactive

# From US8822407B2, “Preparation of conjugates comprising adenine derivatives and allergenic proteins and their use for specific immunotherapy of allengenic diseases” (Universita' Degli Studi di Firenze, priority 2010, dated 2014)
